Data taken from patent US20210308120A1, “Use of Amitriptyline for Blocking Brain Hemichannels and Method for Potentiating its Effect in Vivo” (THERANEXUS, priority 2015, published 2021).
Entries after “also recorded” stand apart in the source; their conditions may differ.

How the values were obtained:
Cx43 hemichannels = target: T1, Cx43 hemichannels (Mus musculus, UniProt P23242); test: Hemichannel activity by ethidium bromide uptake in LPS-treated mouse cortical astrocyte cultures; assay type: cell-based; details: 24 hours; for HC activity (ethidium bromide uptake) after LPS-induced opening: LPS 1 μg/mL and mefloquine or MFA 10 μM; for Degree of Cx43 hemichannel inhibition, MFA compared with mefloquine: both 10 μM, LPS 1 μg/mL
T1 construct: Astrocyte cultures were prepared from cortex of rats and mice as previously described; endogenous in cells; host or cells: secondary cultures of mouse cortical astrocytes, LPS-treated
T1 sequence (P23242 whole entry): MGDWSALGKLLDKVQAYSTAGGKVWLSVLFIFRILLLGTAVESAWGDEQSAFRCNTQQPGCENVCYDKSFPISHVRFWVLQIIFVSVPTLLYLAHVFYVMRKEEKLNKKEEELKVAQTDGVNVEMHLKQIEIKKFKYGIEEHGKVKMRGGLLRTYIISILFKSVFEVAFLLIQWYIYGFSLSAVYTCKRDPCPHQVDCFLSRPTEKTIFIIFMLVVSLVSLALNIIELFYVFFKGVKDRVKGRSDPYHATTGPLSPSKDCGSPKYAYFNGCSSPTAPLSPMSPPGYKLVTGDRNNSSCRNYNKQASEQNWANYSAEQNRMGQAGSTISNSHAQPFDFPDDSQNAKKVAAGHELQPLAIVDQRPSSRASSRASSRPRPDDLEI
Protocol: Astrocyte cultures were prepared from cortex of rats and mice as previously described (Meme et al., 2006). Cells were seeded on polyornithine coated 35 mm dishes (5×10^5 cells/dish) or into 100-mm diameter plastic dishes at the density of 3×10^6 cells/dish. After 8-10 days, when cells grown into 35 mm in diameter plastic culture dishes have reached confluence, 1 μM of cytosine-arabinoside was added to the culture medium. In addition, when cells grown into 100 mm plastic culture dishes reached confluence, they were harvested with trypsin-EDTA. Then, cells were re-plated (2×10^5 cells per well), as secondary cultures, on glass coverslips placed inside 24-round-well plate. Finally, they were grown to confluence and cytosine-arabinoside was added. Medium was changed twice a week for all cells until the experiments were carried out. Hemichannel activity was evaluated in secondary cultures of cortical astrocytes by Ethidium Bromide (EtBr) uptake as already published (Orellana et al, 2011). 24 h before experiment, cells were pretreated or not with 1 μg/ml LPS known to open Cx43 HeC. The day of experiment, cells were first preincubated in HEPES buffer solution. Then, cells were exposed to 5 μM EtBr for 10 min at room temperature. Cells were then washed with the same buffer before fixation with 4% paraformaldehyde in PBS. Fixed cells were examined at 40× with a confocal laser-scanning microscope. Stacks of 10 consecutive confocal images taken at 0.49 μm intervals were acquired. For each experimental condition, 6 images were captured and then analyzed with Image J program (NIH software). LPS was added to mouse cortical astrocytic cultures during 24 hours to open Cx43 hemichannels and amitriptyline was also added during the same time to evaluate its action on hemichannel activity, quantified by cell uptake of ethidium bromide.

[1] = tested on: SN-CCI rats (neuropathic pain, hyperalgesia); test: Randall & Selitto test in SN-CCI rats, chronic 14-day administration; assay type: in vivo, rat; details: 14 days; for Potentiation of amitriptyline anti-hyperalgesic effect: combined with amitriptyline 12 mg/kg, mefloquine or MFA 0.5 mg/kg i.p. twice a day
From the text: Data are the means±S.E.M. of n=8-14 rats.
Data are the means±S.E.M. of n=8-14 rats. *p<0.05, **p<0.01, ***p<0.001 as compared with “saline+saline” group at the same time, ≠p<0.05 as compared between amitriptyline groups, two-way ANOVA, Bonferroni test.
(§1) One week after their arrival, rats were anesthetized with sodium pentobarbital before exposing the common sciatic nerve. As described in Bennett's article, four chromic catgut (5-0) ligations were tied loosely proximally to the sciatic trifurcation (Bennett and Xie, 1988).
(§2) All behavioral assessments were conducted between 9 a.m. and 5 p.m. in a quiet room. An increasing pressure was applied to the right hind paw of SN-CCI (Sciatic Nerve-Chronic Constriction Injury) rat to evaluate hyperalgesia-like behavior (Viguier and al, 2013). Values correspond to the pressure threshold producing the paw withdrawal and then the vocalization of the rat.
Osmotic mini-pumps (Alzet, model 2ML2), delivering for the following 14 days amitriptyline or vehicle were subcutaneously implanted.
a) Rats were ligated on sciatic nerve and then tested with the Randall & Selitto test 14 days after surgery, to evaluate hyperalgesia quantified as pressure threshold. Neuropathic rats, characterized by a decrease of pressure threshold after surgery, were then treated during 14 days and tested by the Randall & Selitto test during this period.

[2] = tested on: neuropathic mice (cuff model, allodynia); test: Mechanical allodynia, von Frey test in sciatic nerve cuff model; assay type: in vivo, mouse; details: for Synergy with amitriptyline in vivo: combined with amitriptyline (FIGS. 7 and 11), 0.5 mg/kg
Protocol: Paw withdrawal thresholds of mice treated with either amitriptyline 6 mg/kg alone (AMIT 6) or amitriptyline 12 mg/kg alone (AMIT 12) are also shown (D). FIG. 10 (E) represents area under curve analysis.
Area under curve analysis are shown (B).
Neuropathic pain was induced to adult male C57BL/6J mice (Charles River, L'Arbresle, France) by cuffing the main branch of the right sciatic nerve (For detailed description and video illustration: Yalcin et al. 2014, J Vis Exp 89:e51608). Surgeries were performed under ketamine (68 mg/kg)/xylazine (10 mg/kg) intraperitoneal (i.p.) anesthesia (Centravet, Tadden, France). The common branch of the right sciatic nerve was exposed and a cuff of PE-20 polyethylene tubing (Harvard Apparatus, Les Ulis, France) of standardized length (2 mm) was unilaterally inserted around it (Cuff group). The shaved skin was closed using suture.
Injections were done once a day during the 17 first days of treatment, in the afternoon. As a single dose per day was ineffective, treatment was then done twice a day, morning and afternoon, from the 8 last days of treatment.
Mechanical allodynia was tested using von Frey hairs and results were expressed in grams (For detailed description and video illustration: Yalcin et al. 2014, J Vis Exp 89:e51608). Tests were done during the morning, starting at least 2 hours after lights on. Mice were placed in clear Plexiglas boxes (7 cm×9 cm×7 cm) on an elevated mesh screen. Calibrated von Frey filaments (Bioseb, Vitrolles, France) were applied to the plantar surface of each hindpaw until they just bent, in a series of ascending forces up to the mechanical threshold. Filaments were tested five times per paw and the paw withdrawal threshold was defined as the lower of two consecutive filaments for which three or more withdrawals out of the five trials were observed.
Mice were subjected to sciatic nerve cuffing and then tested with the von Frey test to evaluate allodynia quantified as pressure threshold.
Mice were subjected to sciatic nerve cuffing and then tested with the von Frey test to evaluate allodynia quantified as pressure threshold. Neuropathic mice, characterized by a decrease of pressure threshold after surgery, were then treated during 25 days and tested by the von Frey test during this period.

mice subjected to FST = test: Forced Swim Test (FST); assay type: in vivo, mouse; details: amitriptyline 12 mg/kg + mefloquine 1 mg/kg per os; 2nd 3-min period
Protocol: The FST is the most used rodent model for screening antidepressants (Porsolt et al, 1977). Mice were dropped individually in a glass cylinder (25 cm high, 9 cm diameter) filled with 10 cm 25° C. water. The experiment was recorded with a camcorder, placed in front of the glass cylinders. Video were scored at a later time by an experimenter blind to the treatments. The indices of depression-related behavior are the immobility time, the swimming time and the climbing time.
FST test evaluates the despair behavior which is commonly reversed by antidepressants. During FST, the swimming time of each mouse was measured on each 1-min period, on 1st and 2nd 3-min periods.

[3] = tested on: SN-CCI rats (neuropathic pain, hyperalgesia); test: Randall & Selitto test in SN-CCI rats, repeated administration every 150 minutes; assay type: in vivo, rat; details: mefloquine 1 mg/kg with amitriptyline i.p. every 150 min; at 90 and 240 min
Protocol: as §1, §2

[4] = Pharmacokinetics of amitriptyline/mefloquine in plasma and brain of mice (LC-MS); assay type: in vivo, mouse
Protocol: Data are presented as mean±SEM.
Adult male C57BL/6J mice (Charles River, L'Arbresle, France) were used. Mice were kept in collective cages for habituation to the facility for one week before experimental testing with food and water ad libitum. Mice were maintained on a light/dark cycle of 12 hours with light onset at 8h00 and with a controlled temperature of 21° C.±1° C.
Injections were done twice.
On day 18th of treatment, mice received the morning injection and samplings were done 2 hours after the injection. Mice were anesthetized just before sampling (ketamine 68 mg/kg, xylazine 10 mg/kg) and blood was collected by intracardiac puncture (Vacuette tubes, with lithium/heparin gel). The mouse was then decapitated, and the brain extracted and fast frozen in dry ice.
Vacuette tubes with blood were centrifugated (3000 rpm, 20 min), plasma recovered and stored at −80° C. until shipping in dry ice.

[5] = cited from earlier work
[6] = amitriptyline 12 mg/kg s.c. osmotic pump, mefloquine 0.5 mg/kg i.p. twice a day, vs saline

In the case of Cc1ccc(Cl)c(Nc2ccccc2C(=O)O)c1Cl [MFA, meclofenamic acid], the “HC activity (ethidium bromide uptake) after LPS-induced opening” value (Cx43 hemichannels) is reported as “reversed this effect”, the “Degree of Cx43 hemichannel inhibition, MFA compared with mefloquine” value (Cx43 hemichannels) is reported as “presented a higher inhibitor effect” and the “Potentiation of amitriptyline anti-hyperalgesic effect” value [1] is reported as “did not present any improved effect of amitriptyline”. The “Synergy with amitriptyline in vivo” value [2] was “not observed”.

In the case of O[C@H](c1cc(C(F)(F)F)nc2c(C(F)(F)F)cccc12)[C@@H]1CCCCN1 (relative stereo) [mefloquine, (R*, S*)-(±)-α-2-piperidinyl-2,8-bis (trifluoromethyl)-4-quinolinemethanol], the Swimming time (mice subjected to FST) is reported as “able to potentiate amitriptyline 12 mg/kg”, the “Potentiation of amitriptyline anti-hyperalgesic effect” value [3] is reported as “significantly improved the anti-hyperalgesic effect of amitriptyline” and the “HC activity (ethidium bromide uptake) after LPS-induced opening” value (Cx43 hemichannels) is reported as “reversed this effect”. For the same molecule, the “Degree of Cx43 hemichannel inhibition, MFA compared with mefloquine” value (Cx43 hemichannels) was “less efficient”, the “Paw withdrawal threshold (pressure)” value [1, 6] was “did not present significant effect on both responses” and the “Vocalization threshold (pressure)” value [1, 6] was “did not present significant effect on both responses”. For the same molecule, the “Potentiation of amitriptyline anti-hyperalgesic effect” value [1] was “significantly potentiated amitriptyline hyperalgesic profile from day 6 to day 14; also recorded: significantly potentiated amitriptyline hyperalgesic at day 14”, the “Concentrations in blood and brain tissue” value ([4]; amitriptyline 6, 12 mg/kg, mefloquine 0.1, 0.3, 1 mg/kg i.p., 18 days, 2 hours after injection) was “dose-dependent” and the “Effect on concentrations of amitriptyline in blood and brain” value ([4]; even for the highest doses of mefloquine) was “does not induce an increase”. For the same molecule, the “Mefloquine concentrations in plasma and brain at optimal in vivo potentiation” value ([4]; mice, FIG. 12) was “micromolar scale”, the “Potentiation of amitriptyline antiallodynic effect” value ([2]; mefloquine 0.1, 0.33, 1 mg/kg i.p. with amitriptyline 6 mg/kg, 25 days) was “significantly potentiated amitriptyline 6 mg/kg” and the “Antiallodynic effect of combination” value ([2]; mefloquine 0.1 and 0.33 mg/kg with amitriptyline 6 mg/kg) was “antiallodynic effect similar to amitriptyline 12 mg/kg”.

In the case of hydroxymefloquine, the Presence as metabolite ([5]; in vivo) is given as “minute quantities only”.

For O=C(O)c1cccnc1Nc1cccc(C(F)(F)F)c1 [niflumic acid], the “Synergy with amitriptyline in vivo” value [2] was “not observed”.

In the case of O=C(O)c1cc(C(F)(F)F)nc2c(C(F)(F)F)cccc12 [2,8-bistrifluoromethyl-4-quinoline carboxylic acid], the “Time to maximum plasma concentrations” value ([5]; in vivo) is listed as 2 weeks and the “Maximum plasma concentrations, higher than those of mefloquine” value ([5]; relative to mefloquine) is listed as “about 50%”.
